From patent publication US20090275626A1, “PHARMACEUTICAL COMPOSITION FOR PREVENTION OR TREATMENT OF NEUROGENIC PAIN” (KISSEI PHARMACEUTICAL CO., LTD., priority 2005, published 2009)
Entries after “also recorded” stand apart in the source; their conditions may differ.

Assays:
Assay type in all cases: in vivo, rat
[1] = tested on: Seltzer model rats; assay: Nociceptive threshold in Seltzer model rats (Test Example 3, Randall-Selitto method); settings: for nociceptive threshold of the nerve ligation group: 1 hour after final administration; for analgesic effect compared with carbamazepine: Compounds 1, 2: 1 mg/kg s.c., Compound 3 hydrochloride: 10 mg/kg oral, carbamazepine 10 mg/kg oral, 2 weeks
Text: Fifty-eight, 7-week old male SD rats were anesthetized with pentobarbital (Nembutal injection (a registered trademark)), and the right sciatic nerve was exposed. In the nerve ligation group (48 rats), half of the dorsal portion of the nerve was ligated using 6-0 nylon suture. In Normal group (10 rats), the sciatic nerve was only exposed. From the following day of the model preparation, each test article (Compound 1, Compound 2 or Compound 3 hydrochloride) was repeatedly administered once a day for 2 weeks. Compound 1 (10 rats) and Compound 2 (10 rats) were administered subcutaneously, and Compound 3 hydrochloride (9 rats) and carbamazepine (10 rats) were administered orally. Control group (9 rats) and Normal group were subcutaneously administered physiological saline. One hour after the final administration of the test articles, the nociceptive threshold against pressure stimulation given to the right hind-paw of rats was measured by Randall-Selitto method, and compared with Control group.

[2] = tested on: STZ-induced diabetic rats; assay: Nociceptive threshold in STZ-induced diabetic rats, repeated subcutaneous administration over 10 weeks (Test Example 2, Randall-Selitto method); settings: for nociceptive threshold after 14-day repeated administration: 0.1, 0.3 and 1 mg/kg subcutaneous once a day, right hind-paw pressure, vs Control group; for neuroprotective effects: concluded from controlled changes of nociceptive threshold over 10 weeks (early hyperalgesia, late hypoalgesia); for changes of the nociceptive threshold over 10 weeks after STZ administration (repeated-measures analysis of variance vs Control group): subcutaneous once a day, measured every 2 weeks until 10th week, P<0.05
Protocol: STZ (50 mg/kg) was administered intravenously to male SD stain rats to induce diabetes mellitus. From the following day of the STZ administration, test article (Compound 1 or 2) was administered subcutaneously once a day, repeatedly. Normal and Control groups were administered subcutaneously physiological saline (9-10 rats in each group). Before the STZ administration and every 2 weeks until the 10th week after STZ administration, the nociceptive threshold against pressure stimulation given to the right hind-paw of rats was measured by Randall-Selitto method, and compared with Control group.
The changes of the nociceptive thresholds (mean±SE) in each group over 10 weeks after administration of each drug are shown in FIG. 2 and FIG. 3.

[3] = tested on: STZ-induced diabetic rats; assay: Nociceptive threshold in STZ-induced diabetic rats, repeated oral administration (Test Example 1, Randall-Selitto method); settings: Compound 3 hydrochloride 10 mg/kg oral twice a day, 14-day repeated administration, 1 hour after final administration, right hind-paw pressure, vs Control group
Protocol: STZ (50 mg/kg) was administered intravenously to 7-week old male SD stain rats to induce diabetes mellitus. From the following day of the STZ administration, test article (Compound 3 hydrochloride) was administered orally twice a day, repeatedly (10 rats in each group). Normal and Control groups were administered the medium (0.5% methylcellulose). The nociceptive threshold against pressure stimulation given to the right hind-paw of rats after 2 weeks administration (1 hour after the final administration) of test article was measured by Randall-Selitto method, and compared with Control group.

[4] = 10 mg/kg oral once a day for 2 weeks
[5] = 1 mg/kg subcutaneous once a day for 2 weeks

| Structure (SMILES) | nociceptive threshold of the nerve ligation group [1, 4] | nociceptive threshold of the nerve ligation group [1, 5] | analgesic effect compared with carbamazepine [1] | nociceptive threshold after 14-day repeated administration [2] | neuroprotective effects [2] | changes of the nociceptive threshold over 10 weeks after STZ administration (repeated-measures analysis of variance vs Control group) ([2]; sodium salt) | nociceptive threshold [3] | changes of the nociceptive threshold over 10 weeks after STZ administration (repeated-measures analysis of variance vs Control group) ([2]; disodium salt) |
| --- | --- | --- | --- | --- | --- | --- | --- | --- |
| NC(=O)N1c2ccccc2C=Cc2ccccc21 [carbamazepine, reference compound] | analgesic effect | – | – | – | – | – | – | – |
| C[C@H](Cc1ccc(OCC(=O)[O-])cc1)NC[C@H](O)c1cccc(Cl)c1.[Na+] [Compound 1] | – | significantly improved | comparable to that of carbamazepine | increased clearly in a dose-dependent manner at 0.3 mg/kg or above | have neuroprotective effects | significant differences in comparison with Control group; also recorded: significant difference | – | – |
| Cc1cc(-c2ccc(C(=O)O)c(C(C)C)c2)cc(C)c1OCCN[C@@H](C)[C@H](O)c1ccc(O)cc1 [Compound 3, 4′-[2-[(1S,2R)-2-hydroxy-2-(4-hydroxyphenyl)-1-methylethylamino]ethoxy]-3-isopropyl-3′,5′-dimethylbiphenyl-4-carboxylic acid] | significantly improved | – | comparable to that of carbamazepine | – | – | – | increased remarkably | – |
| C[C@H](Cc1ccc2c(c1)OC(C(=O)[O-])(C(=O)[O-])O2)NC[C@H](O)c1cccc(Cl)c1.[Na+].[Na+] [Compound 2] | – | significantly improved | comparable to that of carbamazepine | increased clearly in a dose-dependent manner at 0.3 mg/kg or above | have neuroprotective effects | – | – | significant differences in comparison with Control group; also recorded: significant difference |
